According to patent US10435399B2, “HDAC6 inhibitory heterocyclic compound” (TAKEDA PHARMACEUTICAL COMPANY LIMITED, priority 2017, dated 2019):

What follows are molecules tested against T1, HDAC6 enzyme (Homo sapiens, UniProt Q9UBN7) (assay: HDAC6 enzyme inhibitory activity (HDAC-Glo I/II Assay kit)). Conditions: 10 μM; wells without enzyme = 100% inhibition.
T1 construct: transducing full length HDAC6 gene into Sf-9 insect cells; GST; purchased SignalChem; host or cells: Sf-9 insect cells
T1 sequence (Q9UBN7 1-1215): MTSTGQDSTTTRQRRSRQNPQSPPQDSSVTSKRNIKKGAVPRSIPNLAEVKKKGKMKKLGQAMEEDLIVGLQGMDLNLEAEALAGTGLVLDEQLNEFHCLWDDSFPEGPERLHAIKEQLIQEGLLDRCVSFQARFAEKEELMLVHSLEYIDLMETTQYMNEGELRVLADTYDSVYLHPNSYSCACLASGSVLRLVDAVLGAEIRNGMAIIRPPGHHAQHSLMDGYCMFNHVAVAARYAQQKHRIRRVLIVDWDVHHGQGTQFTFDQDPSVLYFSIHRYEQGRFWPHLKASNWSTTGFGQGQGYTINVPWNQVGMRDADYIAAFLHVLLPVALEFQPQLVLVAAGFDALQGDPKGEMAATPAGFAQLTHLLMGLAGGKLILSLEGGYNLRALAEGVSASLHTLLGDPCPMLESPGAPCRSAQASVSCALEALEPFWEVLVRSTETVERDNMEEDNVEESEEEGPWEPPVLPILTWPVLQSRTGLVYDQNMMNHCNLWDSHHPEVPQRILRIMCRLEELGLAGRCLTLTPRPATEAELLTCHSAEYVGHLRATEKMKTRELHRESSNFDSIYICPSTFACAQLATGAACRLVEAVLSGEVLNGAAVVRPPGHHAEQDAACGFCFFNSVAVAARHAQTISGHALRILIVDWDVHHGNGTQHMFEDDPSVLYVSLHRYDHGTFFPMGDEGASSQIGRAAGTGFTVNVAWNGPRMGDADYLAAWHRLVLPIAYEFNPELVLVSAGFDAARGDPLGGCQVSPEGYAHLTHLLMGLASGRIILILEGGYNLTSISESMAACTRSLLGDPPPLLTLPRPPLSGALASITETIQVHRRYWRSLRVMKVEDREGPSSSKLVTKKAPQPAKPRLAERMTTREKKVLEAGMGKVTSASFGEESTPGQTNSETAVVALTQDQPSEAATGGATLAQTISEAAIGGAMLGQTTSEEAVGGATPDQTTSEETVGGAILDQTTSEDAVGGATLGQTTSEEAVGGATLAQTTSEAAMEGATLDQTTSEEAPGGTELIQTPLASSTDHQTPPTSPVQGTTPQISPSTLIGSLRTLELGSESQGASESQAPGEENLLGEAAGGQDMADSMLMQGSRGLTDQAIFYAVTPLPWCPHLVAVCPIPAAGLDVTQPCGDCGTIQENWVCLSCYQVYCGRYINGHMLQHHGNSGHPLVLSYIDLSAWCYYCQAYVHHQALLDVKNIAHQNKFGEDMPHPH
Format: biochemical
Method: HDAC6 enzyme prepared by transducing full length HDAC6 gene into Sf-9 insect cells and purifying by GST affinity column were purchased from SignalChem. Using this enzyme, HDAC6 enzyme inhibitory activities of the compound of the present invention were evaluated. Enzymes were used after preserved at −70° C. HDAC6 enzyme inhibitory activity of the compound of the present invention was measured using HDAC-Glo™ I/II Assay kit (Promega) according to the following experimental method. The test compound diluted with assay buffer (24 mM Tris-HCl (pH 7.5), 1 mM MgCl2, 0.35 mM KCl, 135 mM NaCl, 0.6 mM Glutathione, 0.01% Tween-20) was added to a 384-well plate by each 2 μL. Then, HDAC6 enzyme solution diluted with assay buffer was added thereto by each 4 μL, and the plate was incubated at room temperature for 60 min. After incubated, HDAC substrate-Developer solution prepared according to Promega protocol attached to the assay kit was added to the 384-well plate by each 2 μL, and the enzyme reaction was started. After reacting at room temperature for 20 min, luminescence level was measured using plate reader Envision (PerkinElmer). The inhibitory activity of each compound of Example was calculated as a relative activity value when luminescence level in wells without enzyme is considered as 100% inhibition.

HDAC6 inhibitory rate (%) (10 μM)	Compound
99%	O=C1c2cc(-c3nnc(C(F)F)o3)ccc2CN1[C@@H]1CCC(F)(F)C[C@@H]1c1ccccn1 (relative stereo) [Example 591, 6-(5-(difluoromethyl)-1,3,4-oxadiazol-2-yl)-2-((1R*,2S*)-4,4-difluoro-2-(pyridin-2-yl)cyclohexyl)isoindolin-1-one (optical isomer)]

Same assay, conditions: 10 μM; wells without enzyme = 100% inhibition; read-out: HDAC6 inhibitory rate (%) (10 μM)

Compound	inhibition at 10 µM
O=C1CCCN1[C@@H]1COCC[C@H]1N1Cc2ccc(-c3nnc(C(F)F)o3)cc2C1=O [Example 1, 6-(5-(difluoromethyl)-1,3,4-oxadiazol-2-yl)-2-((3S,4R)-3-(2-oxopyrrolidin-1-yl)tetrahydro-2H-pyran-4-yl)isoindolin-1-one]	101%
O=C1CCCN1[C@@H]1CCCC[C@H]1N1Cc2ccc(-c3nnc(C(F)F)o3)cc2C1=O [Example 2, 6-(5-(difluoromethyl)-1,3,4-oxadiazol-2-yl)-2-((1R,2R)-2-(2-oxopyrrolidin-1-yl)cyclohexyl)isoindolin-1-one]	99%
CC(=O)N[C@@H]1CCCC[C@H]1N1Cc2ccc(-c3nnc(C(F)F)o3)cc2C1=O [Example 5, N-((1R,2R)-2-(6-(5-(difluoromethyl)-1,3,4-oxadiazol-2-yl)-1-oxo-1,3-dihydro-2H-isoindol-2-yl)cyclohexyl)acetamide]	100%
O=C(N[C@@H]1CCCC[C@H]1N1Cc2ccc(-c3nnc(C(F)F)o3)cc2C1=O)OC1CC1 [Example 8, cyclopropyl ((1R,2R)-2-(6-(5-(difluoromethyl)-1,3,4-oxadiazol-2-yl)-1-oxo-1,3-dihydro-2H-isoindol-2-yl)cyclohexyl)carbamate]	101%
O=C(N[C@@H]1CCCC[C@H]1N1Cc2ccc(-c3nnc(C(F)F)o3)cc2C1=O)C1CC1 [Example 11, N-((1R,2R)-2-(6-(5-(difluoromethyl)-1,3,4-oxadiazol-2-yl)-1-oxo-1,3-dihydro-2H-isoindol-2-yl)cyclohexyl)cyclopropanecarboxamide]	98%
O=C(N[C@@H]1CCCC[C@H]1N1Cc2ccc(-c3nnc(C(F)F)o3)cc2C1=O)C1CCC1 [Example 12, N-((1R,2R)-2-(6-(5-(difluoromethyl)-1,3,4-oxadiazol-2-yl)-1-oxo-1,3-dihydro-2H-isoindol-2-yl)cyclohexyl)cyclobutanecarboxamide]	100%
O=C1c2ccccc2CN1[C@@H]1CCCC[C@H]1N1Cc2ccc(-c3nnc(C(F)F)o3)cc2C1=O [Example 14, 6-(5-(difluoromethyl)-1,3,4-oxadiazol-2-yl)-2-((1R,2R)-2-(1-oxo-1,3-dihydro-2H-isoindol-2-yl)cyclohexyl)isoindolin-1-one]	100%
O=C1CCCCN1[C@@H]1CCCC[C@H]1N1Cc2ccc(-c3nnc(C(F)F)o3)cc2C1=O [Example 20, 6-(5-(difluoromethyl)-1,3,4-oxadiazol-2-yl)-2-((1R,2R)-2-(2-oxopiperidin-1-yl)cyclohexyl)isoindolin-1-one]	100%

Continued, values first:

inhibition at 10 µM	Compound
100%	O=C(NC1CC(F)(F)CC[C@H]1N1Cc2ccc(-c3nnc(C(F)F)o3)cc2C1=O)OCc1ccccc1 (stereo in doubt) [Example 517, benzyl ((1S,2R)-2-(6-(5-(difluoromethyl)-1,3,4-oxadiazol-2-yl)-1-oxo-1,3-dihydro-2H-isoindol-2-yl)-5,5-difluorocyclohexyl) carbamate]
99%	CC(C)(C)OC(=O)N[C@@H]1CCCC[C@H]1N1Cc2ccc(-c3nnc(C(F)F)o3)cc2C1=O [Example 3, tert-butyl ((1R,2R)-2-(6-(5-(difluoromethyl)-1,3,4-oxadiazol-2-yl)-1-oxo-1,3-dihydro-2H-isoindol-2-yl)cyclohexyl)carbamate]
99%	O=C1c2cc(-c3nnc(C(F)F)o3)ccc2CN1[C@@H]1CCCC[C@H]1N1CCCS1(=O)=O [Example 4, 6-(5-(difluoromethyl)-1,3,4-oxadiazol-2-yl)-2-((1R,2R)-2-(1,1-dioxido-1,2-thiazolidin-2-yl)cyclohexyl)isoindolin-1-one]
102%	O=C1c2cc(-c3nnc(C(F)F)o3)ccc2CN1[C@@H]1CCCC[C@H]1NC(=O)C(F)(F)F [Example 6, N-((1R,2R)-2-(6-(5-(difluoromethyl)-1,3,4-oxadiazol-2-yl)-1-oxo-1,3-dihydro-2H-isoindol-2-yl)cyclohexyl)-2,2,2-trifluoroacetamide]
99%	CCC(=O)N[C@@H]1CCCC[C@H]1N1Cc2ccc(-c3nnc(C(F)F)o3)cc2C1=O [Example 7, N-((1R,2R)-2-(6-(5-(difluoromethyl)-1,3,4-oxadiazol-2-yl)-1-oxo-1,3-dihydro-2H-isoindol-2-yl)cyclohexyl)propanamide]
102%	CC(C)C(=O)N[C@@H]1CCCC[C@H]1N1Cc2ccc(-c3nnc(C(F)F)o3)cc2C1=O [Example 9, N-((1R,2R)-2-(6-(5-(difluoromethyl)-1,3,4-oxadiazol-2-yl)-1-oxo-1,3-dihydro-2H-isoindol-2-yl)cyclohexyl)-2-methylpropanamide]
99%	COC(=O)N[C@@H]1CCCC[C@H]1N1Cc2ccc(-c3nnc(C(F)F)o3)cc2C1=O [Example 10, methyl((1R,2R)-2-(6-(5-(difluoromethyl)-1,3,4-oxadiazol-2-yl)-1-oxo-1,3-dihydro-2H-isoindol-2-yl)cyclohexyl)carbamate]
101%	O=C(CC(F)(F)F)N[C@@H]1CCCC[C@H]1N1Cc2ccc(-c3nnc(C(F)F)o3)cc2C1=O [Example 13, N-((1R,2R)-2-(6-(5-(difluoromethyl)-1,3,4-oxadiazol-2-yl)-1-oxo-1,3-dihydro-2H-isoindol-2-yl)cyclohexyl)-3,3,3-trifluoropropanamide]
98%	CC1(C(=O)N[C@@H]2CCCC[C@H]2N2Cc3ccc(-c4nnc(C(F)F)o4)cc3C2=O)CC1 [Example 15, N-((1R,2R)-2-(6-(5-(difluoromethyl)-1,3,4-oxadiazol-2-yl)-1-oxo-1,3-dihydro-2H-isoindol-2-yl)cyclohexyl)-1-methylcyclopropanecarboxamide]
100%	CC1(C(=O)N[C@@H]2CCCC[C@H]2N2Cc3ccc(-c4nnc(C(F)F)o4)cc3C2=O)COC1 [Example 16, N-((1R,2R)-2-(6-(5-(difluoromethyl)-1,3,4-oxadiazol-2-yl)-1-oxo-1,3-dihydro-2H-isoindol-2-yl)cyclohexyl)-3-methyloxetane-3-carboxamide]
101%	N#CC1(C(=O)N[C@@H]2CCCC[C@H]2N2Cc3ccc(-c4nnc(C(F)F)o4)cc3C2=O)CC1 [Example 17, 1-cyano-N-((1R,2R)-2-(6-(5-(difluoromethyl)-1,3,4-oxadiazol-2-yl)-1-oxo-1,3-dihydro-2H-isoindol-2-yl)cyclohexyl)cyclopropanecarboxamide]
100%	O=C(N[C@@H]1CCCC[C@H]1N1Cc2ccc(-c3nnc(C(F)F)o3)cc2C1=O)[C@@H]1CC1(F)F [Example 18, (1S)—N-((1R,2R)-2-(6-(5-(difluoromethyl)-1,3,4-oxadiazol-2-yl)-1-oxo-1,3-dihydro-2H-isoindol-2-yl)cyclohexyl)-2,2-difluorocyclopropanecarboxamide]
101%	O=C1c2cc(-c3nnc(C(F)F)o3)ccc2CN1[C@@H]1CCCC[C@H]1NC(=O)C1(F)CC1 [Example 19, N-((1R,2R)-2-(6-(5-(difluoromethyl)-1,3,4-oxadiazol-2-yl)-1-oxo-1,3-dihydro-2H-isoindol-2-yl)cyclohexyl)-1-fluorocyclopropanecarboxamide]
